Test results reported in PMC5669110 (Pharmacognosy Magazine, 2017).

Legend:
Assay in all cases: fluorogenic HDAC8 inhibitor screening kit
Type in all cases: biochemical
[1] = molecular target: T1, HDAC8 (histone deacetylase family member 8) (Homo sapiens, UniProt Q9BY41); conditions: read-out: % inhibition at 60.75 μM
T1 sequence (Q9BY41 1-377): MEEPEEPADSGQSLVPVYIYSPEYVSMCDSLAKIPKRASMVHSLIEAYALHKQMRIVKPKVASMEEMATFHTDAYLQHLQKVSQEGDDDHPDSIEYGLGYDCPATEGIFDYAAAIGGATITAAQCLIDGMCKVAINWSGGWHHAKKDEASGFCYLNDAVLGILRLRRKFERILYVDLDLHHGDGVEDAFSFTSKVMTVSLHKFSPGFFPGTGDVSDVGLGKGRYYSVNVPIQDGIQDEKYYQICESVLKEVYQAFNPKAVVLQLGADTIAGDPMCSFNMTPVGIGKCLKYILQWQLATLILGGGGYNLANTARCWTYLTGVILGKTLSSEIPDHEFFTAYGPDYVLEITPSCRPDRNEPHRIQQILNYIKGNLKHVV

[2] = molecular target: T1, HDAC8 (histone deacetylase family member 8); conditions: read-out: % inhibition at 310.25 μM
[3] = molecular target: T1, HDAC8 (histone deacetylase family member 8); conditions: read-out: % inhibition at 24.2 μM

With `O=C(O)/C=C/c1ccccc1` [CA, Cinnamic acid] the inhibition at 60.75 µM [1] was 9.3%.
In the case of `O=C/C=C/c1ccccc1` [CAL, Cinnamaldehyde], the inhibition at 310.25 µM [2] is reported as 18.5%.
`OCC=Cc1ccccc1` [CALC, Cinnamyl alcohol] was tested, and the inhibition at 24.2 µM [3] was 5.7%.
